Experiments:
[1] = test system: scopolamine-induced memory impairments; experiment: Morris water maze test with scopolamine as amnesic agent; format: in vivo, mouse; conditions: 60 mg/kg p.o.; scopolamine 5 mg/kg i.p.; control animals 43 seconds
Source text: The anti-amnesic effects of the compounds of the present invention have been evaluated using the Morris water maze test (Morris et al., Nature, 1986, 319, 774-776) in the mouse and scopolamine as amnesic agent. Kumming strain mice (18-24 g, Shanghai Experimental Animal Centre) of either sex were used. Mice were placed on the water maze (80×50×20 cm) and trained to find the platform. Following the period of one day's habituation, each mouse received 3 daily training sessions for seven days. Mice were trained to a criterion of finding the platform within 20 seconds and with <2 errors of entering a dead-end. Once a mouse met the criterion, training was reduced to one daily session until all mice met the criterion. Trained mice were randomly assigned to sub-groups. Compounds under study were dissolved in distilled water and administered by the oral route 40 minutes before behavioural testing. Scopolamine (5 mg/kg, i.p.) was injected 30 minutes before the test. The number of errors and the time for reaching the platform were recorded. Data were expressed as means±s.e.m. Statistical analysis was performed using ANOVA followed by Duncan's multiple-range test.

[2] = test system: animal experimental models; experiment: Mnemocognition in animal experimental models (unspecified); format: in vivo
[3] = test system: Wistar rat; experiment: Social recognition in the Wistar rat; format: in vivo; conditions: 20 mg/kg; second encounter after 2 hours
Source text: Initially described in 1982 by THOR and HOLLOWAY (J. Comp. Physiol., 1982, 29 1000-1006), the social recognition test has subsequently been proposed by various authors (DANTZER et al., Psychopharmacology, 1987, 91, 363-368; PERIO et al., Psychopharmacology, 1989, 97, 262-268) for studying the mnemocognitive effects of new compounds. The test is based on the natural expression of the olfactory memory of the rat and its natural tendency to forget and allows evaluation of memorisation, by recognition of a young congeneric animal, by an adult rat. A young rat (21 days), taken at random, is placed for 5 minutes in the cage housing an adult rat. With the aid of a video device, the experimenter observes the social recognition behaviour of the adult rat and measures its overall duration. The young rat is then removed from the adult rat's cage and is placed in its own cage until the second introduction. The adult rat is given the compound under test and, after 2 hours, is again brought into the presence (5 minutes) of the young rat. The social recognition behaviour is then observed again and its duration measured. The assessment criterion is the difference (T2−T1), expressed in seconds, between the “recognition” times of the 2 encounters.

[4] = test system: Wistar rat; experiment: Object recognition in the Wistar rat; format: in vivo; conditions: 10 mg/kg; second session 24 hours later
Source text: The object recognition test in the Wistar rat was initially developed by ENNACEUR and DELACOUR (Behav. Brain Res., 1988, 31, 47-59). The test is based on the spontaneous exploratory activity of the animal and has the characteristics of episodic memory in humans. This memory test is sensitive to ageing (SCALI et al., Eur. J. Pharmacol., 1997, 325, 173-180) and to cholinergic dysfunctions (BARTOLINI et al., Pharm. Biochem. Behav. 1996, 53(2), 277-283) and is based on the differences in the exploration of 2 objects of fairly similar shape—one familiar, the other new. Prior to the test, the animals are habituated to the environment (an enclosure without an object). In the course of a first session, the rats are placed (3 minutes) in the enclosure, in which there are 2 identical objects. The duration of exploration is measured for each object. In the course of the second session (3 minutes), 24 hours later, 1 of the 2 objects is replaced by a new object. The duration of exploration is measured for each object. The assessment criterion is the difference, Delta, expressed in seconds, between the exploration times for the new object and for the familiar object in the course of the second session.

## CCC(=O)OC1C(OC)=CC(=O)[C@]12[C@@H](Cl)CC13C(OC)=C(OC)C(=O)CC12CCN3C (stereo partly drawn) [Example 1, Spiro[(4S,5S)-4-(ethoxycarbonyl)-3-methoxy-2-cyclopenten-1-one-5:3(2S)-2-chloro-3aS,7aS-((2,3)-1-methylpyrrolidine)-6,7-dimethoxy-1,2,3,3a,4,7a-hexahydro-5H-inden-5-one]]
[1]
  time for reaching the platform: ≤ 18 s

## COC1=CC(=O)C2(C1O)[C@@H](Cl)CC13C(OC)=C(OC)C(=O)CC21CCN3C (stereo partly shown) [acutumine]
[2]
  mnemocognition-facilitating properties: mnemocognition-facilitating properties

## Spiro[(4S,5S)-4-hydroxy-3-methoxy-2-cyclopenten-1-one-5:3(2S)-2-chloro-3aS,7aS-((2,3)-1-methylpyrrolidine)-6,7-dimethoxy-1,2,3,3a,4,7a-hexahydro-5H-inden-5-one oxime] [Example 4]
[3]
  difference (T2−T1) between recognition times of the 2 encounters: -45 s
[4]
  difference, Delta, between exploration times for the new and the familiar object: 8 s
